Source: patent publication US20120028887A1, “L[…] HIV-1” (priority 2009, published 2012)
Residues, ends and D or L forms follow the SMILES beside them. No end group written: not given here. *: point of attachment. Palmitoyl = CCCCCCCCCCCCCCCC(=O)*; C16 = C16 lipid

Assays:
HIV-1 HXB2 = type: cell-based; settings: Table 5
Experimental: For the fitting, we uploaded the X and Y values of the raw data (after subtracting the background) into a nonlinear least squares regression (curve fitter) program that provided the IC50 value (A of the equation), as well as the c value. Virus Infectivity Assay—Fully infectious HIV-1 HXB2 concentrated virus stock was a kind gift of the AIDS Vaccine Program, SAIC. Experiments were done according to a P3 biological safety level. The infectivity of HIV-1 HXB2 was determined using the TZM-bl cell line as a reporter. Cells were added (2×10^4 cells/well) to a 96-well clear-bottomed microtiter plate with 10% serum supplemented Dulbecco's modified eagle medium (DMEM). Plates were incubated at 37° C. for 18-24 hours to allow the cells to adhere. The media was then aspirated from each well and replaced with serum free DMEM containing 40 micrograms/mL DEAE-dextran. […] Luciferase activity was analyzed using the Steady-Glo Luciferase assay kit (Promega, Madison Wis.). […] IC50 Values were calculated from the fitted curve similarly to the cell-cell fusion assay. […] The eight different possible combinations (triple, NBD, DiI, DiD, NBD+DiI, NBD+DiD, DiI+DiD, no label) were defined in the analysis software and the percentage of each one was calculated. The percentage of NBD labeling (peptide) on all cell types in relation to all available labeled cells in the system was calculated. […]

[1] = test system: Jurkat E6-1 cells and Jurkat HXBc2 cells expressing HIV-1 HXBc2 Rev and ENV proteins; type: cell-based; settings: for IC50 (nM) In cell-cell fusion assay: Table 4; for IC50: read-out: IC50 in cell-cell fusion inhibition assay
Experimental: Jurkat E6-1 cells were from Dr. Arthur Weiss (Weiss A et al. 1984, J. Immunol. 133; 123-8), and Jurkat HXBc2 (4) cells expressing HIV-1 HXBc2 Rev and ENV proteins were from Dr. Joseph Sodroski (Cao, J. et al. 1996, J. Virol. 70; 1340-54). Cells were cultured every 3 to 4 days, and maintained in RPMI-1640 supplemented with the appropriate antibiotics at 37° C. with 5% CO2 in a humidified incubator. For ENV expression, Jurkat HXBc2 (4) cells were transferred to medium without tetracycline three days prior to the experiments. […] Cell-Cell Fusion Inhibition Assay—The protocol utilizing Jurkat E6-1 and Jurkat HXBc2 cells for a cell-cell fusion assay was previously described (Huerta L. et al. 2002, Cytometry, 47; 100-6. In short, Jurkat E6-1 and Jurkat HXBc2 cells were labeled with DiI and DiD lypophilic fluorescent probes, respectively. The two cell populations were co-incubated for 6 h in a ratio of 1:1 in the presence of different concentrations of the inhibitory peptides. Cells that co-incubated without the presence of peptides served as an optimal fusion reference. Unlabeled cells that were handled similarly served as an intrinsic fluorescence control. Cells labeled separately with DiI or DiD were used to compensate for the optimal separation of fluorescent signals. Jurkat HXBc2 cells labeled with DiI were co-incubated with Jurkat HXBc2 cells labeled with DiD for a fusion background that was subtracted from the measurements of the experiment. The following alterations were applied to the original protocol: (i) 5 ul of a 1 mg/ml DiI or DiD solution in dimethylsulfoxide (DMSO) was added to 1 ml of 5×10^6 cells/ml Jurkat E6-1 or Jurkat HXBc2 cells, respectively. (ii) Data from 150,000 events for each sample were collected on FACSort, upgraded to a FACSCalibur cell analyzer (Becton Dickinson), and further analyzed. Fitting of the data points was performed according to the equation derived from Hills' equation:

HIV-1LAI = settings: blocked infection of target cells; cited from earlier work

In the case of HQTLSGIDQEQNNLTRLIEAQIHELQ [Sh-Mut e,g], the “IC50 (nM) In virus-cell fusion assay” value (HIV-1 HXB2) is reported as “Not active” and the “IC50 (nM) In cell-cell fusion assay” value [1] is reported as “Not active”.
In the case of “C16-RQLLSGIDQEQNNLTRLIEAQIHELQ (C16-RQLLSGIDQEQNNLTRLIEAQIHELQ-NH2) [C16-Sh-RQLL-Mut e,g]”, the “IC50 (nM) In cell-cell fusion assay” value [1] is reported as “Not active”.
For `CCCCCCCCCCCCCCCC(=O)NCCCC[C@H](NC(=O)[C@H](CCC(N)=O)NC(=O)[C@H](CC(C)C)NC(=O)[C@H](CCC(=O)O)NC(=O)[C@H](Cc1c[nH]cn1)NC(=O)[C@@H](NC(=O)[C@H](CCC(N)=O)NC(=O)[C@H](C)NC(=O)[C@H](CCC(=O)O)NC(=O)[C@@H](NC(=O)[C@H](CC(C)C)NC(=O)[C@H](CCCNC(=N)N)NC(=O)[C@@H](NC(=O)[C@H](CC(C)C)NC(=O)[C@H](CC(N)=O)NC(=O)[C@H](CC(N)=O)NC(=O)[C@H](CCC(N)=O)NC(=O)[C@H](CCC(=O)O)NC(=O)[C@H](CCC(N)=O)NC(=O)[C@H](CC(=O)O)NC(=O)[C@@H](NC(=O)CNC(=O)[C@H](CO)NC(=O)[C@H](CC(C)C)NC(=O)[C@H](CC(C)C)NC(=O)[C@H](CCC(N)=O)NC(=O)[C@@H](N)CCCNC(=N)N)[C@@H](C)CC)[C@@H](C)O)[C@@H](C)CC)[C@@H](C)CC)C(N)=O` [Sh-RQLL-Mut e,g-C16] (H-RQLLSGIDQEQNNLTRLIEAQIHELQK(Palmitoyl)-NH2; N-terminus assumed), the “IC50 (nM) In cell-cell fusion assay” value [1] was “Not active”.
In the case of `CCCCCCCCCCCCCCCC(=O)N[C@@H](CO)C(=O)NCC(=O)N[C@H](C(=O)N[C@@H](CC(=O)O)C(=O)N[C@@H](CCC(N)=O)C(=O)N[C@@H](CCC(=O)O)C(=O)N[C@@H](CCC(N)=O)C(=O)N[C@@H](CC(N)=O)C(=O)N[C@@H](CC(N)=O)C(=O)N[C@@H](CC(C)C)C(=O)N[C@H](C(=O)N[C@@H](CCCNC(=N)N)C(=O)N[C@@H](CC(C)C)C(=O)N[C@H](C(=O)N[C@@H](CCC(=O)O)C(=O)N[C@@H](C)C(=O)N[C@@H](CCC(N)=O)C(=O)N[C@H](C(=O)N[C@@H](Cc1c[nH]cn1)C(=O)N[C@@H](CCC(=O)O)C(=O)N[C@@H](CC(C)C)C(=O)N[C@@H](CCC(N)=O)C(=O)N[C@@H](CC(C)C)C(=O)N[C@H](C(=O)N[C@@H](CCC(N)=O)C(=O)N[C@@H](Cc1c[nH]c2ccccc12)C(=O)N[C@@H](CCCCN)C(=O)N[C@H](C(=O)N[C@@H](CCCCN)C(=O)N[C@@H](CCC(N)=O)C(=O)N[C@@H](CC(C)C)C(=O)N[C@@H](CC(C)C)C(=O)N[C@@H](C)C(=O)N[C@@H](CCCNC(=N)N)C(=O)N[C@H](C(=O)N[C@@H](CC(C)C)C(=O)N[C@@H](CCCCN)C(N)=O)[C@@H](C)CC)[C@@H](C)CC)[C@@H](C)O)[C@@H](C)CC)[C@@H](C)CC)[C@@H](C)O)[C@@H](C)CC` [C16-N36 MUTe,g] (Palmitoyl-SGIDQEQNNLTRLIEAQIHELQLTQWKIKQLLARILK-NH2), the IC50 [1] is reported as 162 ± 4 nM.
In the case of “SGIVQQLNNQLRAEEANQHLEQLSVWGSKQNQARRLK(δ-NH) [N36 MUTa,d, reference compound]”, the “IC50 in cell-cell fusion inhibition assay” value [1] is reported as “inactive” and the “IC50 nM” value ([1]; cell-cell fusion assay, Table 3, N36 mutated peptides) is reported as “Not active”.
Compound `CCCCCCCCCCCCCCCC(=O)NCCCC[C@H](NC(=O)[C@H](CC(C)C)NC(=O)[C@@H](NC(=O)[C@H](CCCNC(=N)N)NC(=O)[C@H](C)NC(=O)[C@H](CC(C)C)NC(=O)[C@H](CC(C)C)NC(=O)[C@H](CCC(N)=O)NC(=O)[C@H](CCCCN)NC(=O)[C@@H](NC(=O)[C@H](CCCCN)NC(=O)[C@H](Cc1c[nH]c2ccccc12)NC(=O)[C@H](CCC(N)=O)NC(=O)[C@@H](NC(=O)[C@H](CC(C)C)NC(=O)[C@H](CCC(N)=O)NC(=O)[C@H](CC(C)C)NC(=O)[C@H](CCC(=O)O)NC(=O)[C@H](Cc1c[nH]cn1)NC(=O)[C@@H](NC(=O)[C@H](CCC(N)=O)NC(=O)[C@H](C)NC(=O)[C@H](CCC(=O)O)NC(=O)[C@@H](NC(=O)[C@H](CC(C)C)NC(=O)[C@H](CCCNC(=N)N)NC(=O)[C@@H](NC(=O)[C@H](CC(C)C)NC(=O)[C@H](CC(N)=O)NC(=O)[C@H](CC(N)=O)NC(=O)[C@H](CCC(N)=O)NC(=O)[C@H](CCC(=O)O)NC(=O)[C@H](CCC(N)=O)NC(=O)[C@H](CC(=O)O)NC(=O)[C@@H](NC(=O)CNC(=O)[C@@H](N)CO)[C@@H](C)CC)[C@@H](C)O)[C@@H](C)CC)[C@@H](C)CC)[C@@H](C)O)[C@@H](C)CC)[C@@H](C)CC)C(N)=O` [N36 MUTe,g-C16] (H-SGIDQEQNNLTRLIEAQIHELQLTQWKIKQLLARILK(Palmitoyl)-NH2) has an IC50 [1] of 8.8 ± 4 nM.
In the case of “C16-HQTLSGIDQEQNNLTRLIEAQIHELQ (C16-HQTLSGIDQEQNNLTRLIEAQIHELQ-NH2) [C16-Sh-Mut e,g]”, the IC50 (HIV-1 HXB2; read-out: IC50 (nM) In virus-cell fusion assay) is reported as 643 ± 137 nM and the “IC50 (nM) In cell-cell fusion assay” value [1] is reported as “Not active”.
For `CC[C@H](C)[C@H](NC(=O)CNC(=O)[C@@H](N)CO)C(=O)N[C@@H](CC(=O)O)C(=O)N[C@@H](CCC(N)=O)C(=O)N[C@@H](CCC(=O)O)C(=O)N[C@@H](CCC(N)=O)C(=O)N[C@@H](CC(N)=O)C(=O)N[C@@H](CC(N)=O)C(=O)N[C@@H](CC(C)C)C(=O)N[C@H](C(=O)N[C@@H](CCCNC(=N)N)C(=O)N[C@@H](CC(C)C)C(=O)N[C@H](C(=O)N[C@@H](CCC(=O)O)C(=O)N[C@@H](C)C(=O)N[C@@H](CCC(N)=O)C(=O)N[C@H](C(=O)N[C@@H](Cc1c[nH]cn1)C(=O)N[C@@H](CCC(=O)O)C(=O)N[C@@H](CC(C)C)C(=O)N[C@@H](CCC(N)=O)C(=O)N[C@@H](CC(C)C)C(=O)N[C@H](C(=O)N[C@@H](CCC(N)=O)C(=O)N[C@@H](Cc1c[nH]c2ccccc12)C(=O)N[C@@H](CCCCN)C(=O)N[C@H](C(=O)N[C@@H](CCCCN)C(=O)N[C@@H](CCC(N)=O)C(=O)N[C@@H](CC(C)C)C(=O)N[C@@H](CC(C)C)C(=O)N[C@@H](C)C(=O)N[C@@H](CCCNC(=N)N)C(=O)N[C@H](C(=O)N[C@@H](CC(C)C)C(=O)N[C@@H](CCCCN)C(N)=O)[C@@H](C)CC)[C@@H](C)CC)[C@@H](C)O)[C@@H](C)CC)[C@@H](C)CC)[C@@H](C)O` [N36 MUTe,g, reference compound] (H-SGIDQEQNNLTRLIEAQIHELQLTQWKIKQLLARILK-NH2; N-terminus assumed), the IC50 [1] was 936 ± 36 nM.
For “RQLLSGIDQEQNNLTRLIEAQIHELQ [Sh-RQLL-Mut e,g]”, the “IC50 (nM) In cell-cell fusion assay” value [1] was “Not active”.
For “HQTLSGIDQEQNNLTRLIEAQIHELQ-C16 [Sh-Mut e,g-C16]”, the “IC50 (nM) In cell-cell fusion assay” value [1] was “Not active”.
For enfuvirtide, the “EC50 against HIV-1LAI” value (HIV-1LAI) is given as 0.5 ng/mL.
